In patent publication US20210300900A1, “OGA INHIBITOR COMPOUNDS” (Janssen Pharmaceutica NV, priority 2018, published 2021):

How the values were obtained:
[1] = molecular target: T1, recombinant human Meningioma Expressed Antigen 5 (MGEA5), also referred to as O-GcNAcase (OGA) (Homo sapiens, UniProt O60502); assay: OGA biochemical assay (inhibition of FM-GlcNAc hydrolysis, fluorescence); conditions: FM-GlcNAc substrate; for Emax: read-out: Enzymatic Emax (%); for IC50: read-out: Enzymatic hOGA, pIC50 (converted)
T1 construct: Full length OGA enzyme was purchased at OnGene (cat #TP322411); purchased OnGene (so in the source)
T1 sequence (O60502 1-916): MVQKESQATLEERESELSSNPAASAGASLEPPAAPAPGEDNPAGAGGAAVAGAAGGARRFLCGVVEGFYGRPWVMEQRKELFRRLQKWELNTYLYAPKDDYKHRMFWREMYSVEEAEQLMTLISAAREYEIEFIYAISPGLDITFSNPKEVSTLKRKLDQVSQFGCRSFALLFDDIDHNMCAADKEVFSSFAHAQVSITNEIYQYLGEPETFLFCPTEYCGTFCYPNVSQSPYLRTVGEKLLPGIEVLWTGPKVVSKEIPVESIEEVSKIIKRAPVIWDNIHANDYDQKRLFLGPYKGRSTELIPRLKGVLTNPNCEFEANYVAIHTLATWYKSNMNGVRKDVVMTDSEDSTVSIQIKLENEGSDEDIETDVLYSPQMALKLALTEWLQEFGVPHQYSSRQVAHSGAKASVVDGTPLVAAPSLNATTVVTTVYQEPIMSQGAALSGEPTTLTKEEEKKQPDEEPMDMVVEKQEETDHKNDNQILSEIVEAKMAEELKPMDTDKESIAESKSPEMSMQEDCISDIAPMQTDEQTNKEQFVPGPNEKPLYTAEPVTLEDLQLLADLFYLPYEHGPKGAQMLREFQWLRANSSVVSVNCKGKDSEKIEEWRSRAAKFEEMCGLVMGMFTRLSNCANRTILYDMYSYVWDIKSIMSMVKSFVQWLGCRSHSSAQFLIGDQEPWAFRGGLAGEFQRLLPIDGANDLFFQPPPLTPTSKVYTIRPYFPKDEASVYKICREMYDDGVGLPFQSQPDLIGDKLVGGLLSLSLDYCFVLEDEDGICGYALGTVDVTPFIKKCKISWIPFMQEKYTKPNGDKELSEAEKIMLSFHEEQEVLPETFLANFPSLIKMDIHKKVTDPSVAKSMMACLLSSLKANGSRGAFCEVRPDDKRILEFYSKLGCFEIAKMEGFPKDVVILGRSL
Source text: The assay is based on the inhibition of the hydrolysis of fluorescein mono-β-D-N-Acetyl-Glucosamine (FM-GlcNAc) (Mariappa et al. 2015, Biochem J 470:255) by the recombinant human Meningioma Expressed Antigen 5 (MGEA5), also referred to as O-GcNAcase (OGA). The hydrolysis FM-GlcNAc (Marker Gene technologies, cat #M1485) results in the formation of B-D-N-glucosamineacetate and fluorescein. The fluorescence of the latter can be measured at excitation wavelength 485 nm and emission wavelength 538 nm. An increase in enzyme activity results in an increase in fluorescence signal. Full length OGA enzyme was purchased at OnGene (cat #TP322411). The enzyme was stored in 25 mM Tris.HCl, pH 7.3, 100 mM glycine, 10% glycerol at −20° C. Thiamet G and GlcNAcStatin were tested as reference compounds (Yuzwa et al. 2008 Nature Chemical Biology 4:483; Yuzwa et al. 2012 Nature Chemical Biology 8:393). The assay was performed in 200 mM Citrate/phosphate buffer supplemented with 0.005% Tween-20. 35.6 g Na2HPO4 2H2O (Sigma, #C0759) were dissolved in 1 L water to obtain a 200 mM solution. 19.2 g citric acid (Merck, #1.06580) was dissolved in 1 L water to obtain a 100 mM solution. pH of the sodiumphosphate solution was adjusted with the citric acid solution to 7.2. The buffer to stop the reaction consists of a 500 mM Carbonate buffer, pH 11.0. 734 mg FM-GlcNAc were dissolved in 5.48 mL DMSO to obtain a 250 mM solution and was stored at −20° C. OGA was used at a 2 nM concentration and FM-GlcNAc at a 100 uM final concentration. Dilutions were prepared in assay buffer.
50 nl of a compound dissolved in DMSO was dispensed on Black Proxiplate TM 384 Plus Assay plates (Perkin Elmer, #6008269) and 3 μl fl-OGA enzyme mix added subsequently. Plates were pre-incubated for 60 min at room temperature and then 2 μl FM-GlcNAc substrate mix added. […] Plates were briefly centrifuged for 1 min at 1000 rpm and incubate at room temperature for 6 h. To stop the reaction 5 μl STOP buffer were added and plates centrifuge again 1 min at 1000 rpm. Fluorescence was quantified in the Thermo Scientific Fluoroskan Ascent or the PerkinElmer EnVision with excitation wavelength 485 nm and emission wavelength 538 nm.
For analysis a best-fit curve is fitted by a minimum sum of squares method. From this an IC50 value and Hill coefficient was obtained. High control (no inhibitor) and low control (saturating concentrations of standard inhibitor) were used to define the minimum and maximum values.

OGA = molecular target: T2, OGA (Homo sapiens, UniProt O60502); assay: OGA cellular assay (ICC detection of O-GlcNAcylated proteins in HEK293 cells inducible for P301L mutant human Tau); assay type: cell-based; conditions: 6 hours incubation; for Emax: HEK293, HEK293 cells inducible for P301L mutant human Tau; for Emax / Cellular Emax (%): maximum = Thiamet G 200 uM; for EC50 / Cellular hOGA; pEC50 / Cellular Emax (%): HEK293 cells inducible for P301L mutant human Tau; for EC50: read-out: Cellular hOGA, pEC50 (converted)
T2 construct: endogenous in cells; host or cells: HEK293 cells inducible for P301L mutant human Tau (isoform 2N4R)
T2 sequence (O60502 1-916): T1 sequence (O60502 1-916)
Protocol: HEK293 cells inducible for P301L mutant human Tau (isoform 2N4R) were established at Janssen. Thiamet-G was used for both plate validation (high control) and as reference compound (reference EC50 assay validation). OGA inhibition is evaluated through the immunocytochemical (ICC) detection of O-GlcNAcylated proteins by the use of a monoclonal antibody (CTD110.6; Cell Signaling, #9875) detecting O-GlcNAcylated residues as previously described (Dorfmueller et al. 2010 Chemistry & biology, 17:1250). Inhibition of OGA will result in an increase of O-GlcNAcylated protein levels resulting in an increased signal in the experiment. Cell nuclei are stained with Hoechst to give a cell culture quality control and a rough estimate of immediate compounds toxicity, if any. ICC pictures are imaged with a Perkin Elmer Opera Phenix plate microscope and quantified with the provided software Perkin Elmer Harmony 4.1.
Cells were propagated in DMEM high Glucose (Sigma, #D5796) following standard procedures. 2 days before the cell assay cells are split, counted and seeded in Poly-D-Lysine (PDL) coated 96-wells (Greiner, #655946) plate at a cell density of 12,000 cells per cm^2 (4,000 cells per well) in 100 μl of Assay Medium (Low Glucose medium is used to reduce basal levels of GlcNAcylation) (Park et al. 2014 The Journal of biological chemistry 289:13519). At the day of compound test medium from assay plates was removed and replenished with 90 μl of fresh Assay Medium. 10 μl of compounds at a 10 fold final concentration were added to the wells. Plates were centrifuged shortly before incubation in the cell incubator for 6 hours. DMSO concentration was set to 0.2%. Medium is discarded by applying vacuum. For staining of cells medium was removed and cells washed once with 100 μl D-PBS (Sigma, #D8537). From next step onwards unless other stated assay volume was always 50 μl and incubation was performed without agitation and at room temperature. Cells were fixed in 50 μl of a 4% paraformaldehyde (PFA, Alpha aesar, #043368) PBS solution for 15 minutes at room temperature. […] Before analysis samples were washed 2 times manually for 5 minutes in ICC base buffer.
Imaging is performed using Perkin Elmer Phenix Opera using a water 20×objective and recording 9 fields per well. Intensity readout at 488 nm is used as a measure of O-GlcNAcylation level of total proteins in wells. To assess potential toxicity of compounds nuclei were counted using the Hoechst staining. IC50-values are calculated using parametric non-linear regression model fitting. As a maximum inhibition Thiamet G at a 200 uM concentration is present on each plate. In addition, a concentration response of Thiamet G is calculated on each plate.

Row | Emax [1] | IC50 [1] | Emax (OGA) | EC50 (OGA) | Enzymatic Emax (%) [1] | Enzymatic hOGA; pIC50 [1] | Cellular hOGA; pEC50 (OGA) | Cellular Emax (%) (OGA) | Compound
1 | 101% | 4.68 nM | 59% | 240 nM |  |  |  |  | CC(=O)Nc1ccc(C(C)N2CCC[C@H](Cc3cc(C)nc(C)c3)C2)s1 (mixture of isomers) [Product 134]
2 | 99% | 70.8 nM | 3% | > 1000 nM |  |  |  |  | CCC(=O)Nc1cncc(C(C)N2CCC[C@H](Cc3cc(C)nc(C)c3)C2)c1 (mixture of isomers) [Product 38]
3 |  |  |  |  | 102% | 7.28 | 6.29 | 67% | COc1cccc([C@H](C)N2CCC[C@H](Cc3cc(C)nc(C)c3)C2)n1 [Product 47]
4 | 93% | 1200 nM | 25% | > 1000 nM |  |  |  |  | CC(=O)Nc1cnc(CN2CCC[C@H](Cc3cc(C)nc(C)c3)C2)cn1 [Product 63]
5 | 101% | 38 nM | 53% | 933 nM |  |  |  |  | COc1cncc(C(C)N2CCC[C@H](Cc3cc(C)nc(C)c3)C2)c1 (mixture of isomers) [Product 43]
6 | 102% | 60.3 nM | 70% | 427 nM |  |  |  |  | CCOc1nc(CN2CCC[C@H](Cc3cc(C)nc(C)c3)C2)c[nH]1 [Product 23]
7 | 94% | 575 nM |  |  |  |  |  |  | CC(=O)Nc1cc(C(C)N2CC[C@@H](Cc3cc(C)nc(C)c3)C2)n[nH]1 (some centres unmarked) [Product 97]
8 | 82% | 3020 nM |  |  |  |  |  |  | Cc1cc(C[C@H]2CCCN(Cc3c[nH]c(C)n3)C2)cc(C)n1 [Product 25]
9 | 93% | 1050 nM |  |  |  |  |  |  | CCNc1cc(CN2CCC[C@H](Cc3cc(C)nc(C)c3)C2)n[nH]1 [Product 2]
10 |  |  |  |  | 102% | 7.01 |  |  | CCOc1cccc([C@@H](C)N2CCC[C@H](Cc3cc(C)nc(C)c3)C2)n1 [Product 51]
11 |  |  |  |  | 44% | <5 |  |  | COc1ccc(F)c([C@@H](C)N2CCC[C@H](Cc3cc(C)nc(C)c3)C2)n1 [Product 41]

Second part, the molecule before the results:

Row | Compound | Emax [1] | IC50 [1] | Emax (OGA) | EC50 (OGA) | Enzymatic Emax (%) [1] | Enzymatic hOGA; pIC50 [1] | Cellular hOGA; pEC50 (OGA) | Cellular Emax (%) (OGA)
12 | CC(=O)Nc1cc(C(C)N2CCC[C@H](Cc3cc(C)nc(C(F)(F)F)c3)C2)n[nH]1 (mixture of isomers) [Product 70] | 101% | 52.5 nM | 57% | 525 nM |  |  |  | 
13 | Cc1cc(C[C@H]2CCCN(C(C)c3cc(C4CC4)[nH]n3)C2)cc(C)n1 (mixture of isomers) [Product 21] | 101% | 24.5 nM | 59% | 468 nM |  |  |  | 
14 | COc1ccc(F)c(C(C)N2CC[C@H](Cc3cc(C)nc(C)c3)C2)n1 (mixture of isomers) [Product 100] | 97% | 912 nM | 10% | > 1000 nM |  |  |  | 
15 | COc1ccc(F)c(C(C)N2CCCC(CNc3cc(C)nc(C(F)(F)F)c3)C2)n1 (centres unmarked) [Product 96] | 104% | 13.5 nM | 23% | > 1000 nM |  |  |  | 
16 | CC(=O)Nc1cc(C(C)N2CCCC(Oc3cc(C)nc(C)c3)C2)n[nH]1 (centres unmarked) [Product 80] | 102% | 102 nM | 7% | > 1000 nM |  |  |  | 
17 | COc1cccc([C@H](C)N2CCC[C@@H](CNc3cc(C)nc(C(F)(F)F)c3)C2)n1 [Product 95] |  |  |  |  | 103% | 7.8 | <6 | 44%
18 | COc1ccc(F)c(C(C)N2CCCC(Oc3cc(C)nc(C(F)(F)F)c3)C2)n1 (centres unmarked) [Product 82] | 97% | 891 nM | 6% | > 1000 nM |  |  |  | 
19 | CC(=O)Nc1cc(C(C)N2CC[C@H](Cc3cc(C)nc(C(F)(F)F)c3)C2)n[nH]1 (mixture of isomers) [Product 122] | 92% | 1000 nM | 17% | > 1000 nM |  |  |  | 
20 | COc1cc(C(C)N2CC[C@@H](Cc3cc(C)nc(C)c3)C2)c(F)cn1 (mixture of isomers) [Product 99] | 91% | 646 nM |  |  |  |  |  | 
